From US9499550B2 (BRISTOL-MYERS SQUIBB COMPANY, priority 2012, dated 2016)
Where two headings read alike, the source gives them in different places.

Experiments:
[1] = system: HCV genotype 1b (Con1) replicon in HUH-7 cells; experiment: HCV replicon luciferase reporter assay, genotype 1b; type: cell-based; settings: Hepatitis C virus, Huh-7, 72 h, 3 days incubation
Outline: (§1)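 Replicon inhibition for both genotypes was measured as Renilla luciferase signal (EnduRen, 7.5 μM final, 2 h) after 3-day, 37° C exposure of replicon-bearing HUH-7 cells in 4% FCS DMEM, 0.5% DMSO. The 1b construct carries S1179I; the 1a H77 construct carries P1496L and S2204I. Twenty-point, 3-fold dilutions were fitted four-parametrically for EC50, and CC50 was taken from multiplexed Cell Titer-Blue.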

[2] = system: HCV genotype 1a (H77 strain) replicon in HUH-7 cells; experiment: HCV replicon luciferase reporter assay, genotype 1a; type: cell-based; settings: Hepatitis C virus, Huh-7, 72 h, 3 days incubation
Outline: as §1

[3] = HCV genotype 1b replicon luciferase, read-out: LE_1b (EC50, range)
[4] = HCV genotype 1a replicon luciferase, read-out: LE_1a (EC50, range)
[5] = HCV genotype 1b replicon luciferase assay, range class, read-out: LE_1b (EC50, range)
[6] = HCV genotype 1a replicon luciferase assay, range class, read-out: LE_1a (EC50, range)

| SMILES | EC50 [1, 3] | EC50 [2, 4] | EC50 [1, 5] | EC50 [2, 6] | further results |
| --- | --- | --- | --- | --- | --- |
| COc1ccc2c(O[C@@H]3C[C@H]4C(=O)N[C@]5(C(=O)NS(=O)(=O)C6(Cl)CC6)C[C@H]5/C=C\CC[C@@H](C)C[C@@H](C)[C@H](NC(=O)OC(C)(C)C)C(=O)N4C3)ncc(OC)c2c1 [Compound 4125, tert-butyl (2R,6S,7R,9R,13aS,14aR,16aS,Z)-14a-(1-chlorocyclopropylsulfonylcarbamoyl)-2-(4,6-dimethoxyisoquinolin-1-yloxy)-7,9-dimethyl-5,16-dioxo-1,2,3,5,6,7,8,9,10,11,13a,14,14a,15,16,16a-hexadecahydrocyclopropa[e]pyrrolo[1,2-a][1,4]diazacyclopentadecin-6-ylcarbamate] | < 5.46 nM | < 5.46 nM |  |  |  |
| COc1ccc2c(O[C@@H]3C[C@H]4C(=O)N[C@]5(C(=O)NS(=O)(=O)C6(C)CC6)C[C@H]5/C=C\CC[C@@H](C)C[C@@H](C)[C@H](NC(=O)OC(C)(C)C)C(=O)N4C3)nc(-c3ccc(OC(C)C)c(F)c3)cc2c1 [Compound 3062, tert-butyl ((2R,6S,7R,9R,13aS,14aR,16aS,Z)-2-((3-(3-fluoro-4-isopropoxyphenyl)-6-methoxyisoquinolin-1-yl)oxy)-7,9-dimethyl-14a-(((1-methylcyclopropyl)sulfonyl)carbamoyl)-5,16-dioxo-1,2,3,5,6,7,8,9,10,11,13a,14,14a,15,16,16a-hexadecahydrocyclopropa[e]pyrrolo[1,2-a][1,4]diazacyclopentadecin-6-yl)carbamate] |  |  | < 5.46 nM | < 5.46 nM |  |
| CCOc1ccc2nc(Cl)c(O[C@@H]3C[C@H]4C(=O)N[C@]5(C(=O)NS(=O)(=O)C6(C)CC6)C[C@H]5/C=C\CC[C@@H](C)C[C@@H](C)[C@H](NC(=O)OC(C)(C)C(F)(F)F)C(=O)N4C3)c(Cl)c2c1 [Compound 4312] |  |  |  |  | EC50 ([1]; GETYPE1B, HCV genotype 1b replicon luciferase, read-out: LE_1b (EC50)): 12.2 nM; EC50 ([1]; GETYPE1B, HCV genotype 1b replicon luciferase, read-out: LE_1b (EC50, range)): 5.01 to 35 nM; EC50 ([2]; GETYPE1A, HCV genotype 1a replicon luciferase, read-out: LE_1a (EC50)): 20.9 nM; EC50 ([2]; GETYPE1A, HCV genotype 1a replicon luciferase, read-out: LE_1a (EC50, range)): 5.01 to 35 nM |
| CCOc1nnc(O[C@@H]2C[C@H]3C(=O)N[C@]4(C(=O)NS(=O)(=O)C5(C)CC5)C[C@H]4/C=C\CC[C@@H](C)C[C@@H](CC)[C@H](NC(=O)OC(C)(C)C(C)(F)F)C(=O)N3C2)c2ccccc12 [Compound 5051, 3,3-difluoro-2-methylbutan-2-yl((2R,6S,7R,9R,13aS,14aR,16aS,Z)-2-((4-ethoxyphthalazin-1-yl)oxy)-7-ethyl-9-methyl-14a-(((1-methylcyclopropyl)sulfonyl)carbamoyl)-5,16-dioxo-1,2,3,5,6,7,8,9,10,11,13a,14,14a,15,16,16a-hexadecahydrocyclopropa[e]pyrrolo[1,2-a][1,4]diazacyclopentadecin-6-yl)carbamate] | < 5.46 nM | < 5.46 nM |  |  |  |
| CC[C@@H]1C[C@@H](C)CC/C=C\[C@@H]2C[C@@]2(C(=O)NS(=O)(=O)C2(C)CC2)NC(=O)[C@@H]2C[C@@H](Oc3nc(OC)cc4cc(OC)ccc34)CN2C(=O)[C@H]1NC(=O)OC1(C(F)(F)F)CCCOC1 (stereo partly drawn) [Compound 1178, 3-(trifluoromethyl)tetrahydro-2H-pyran-3-yl((2R,6S,7R,9S,13aS,14aR,16aS,Z)-2-((3,6-dimethoxyisoquinolin-1-yl)oxy)-7-ethyl-9-methyl-14a-(((1-methylcyclopropyl)sulfonyl)carbamoyl)-5,16-dioxo-1,2,3,5,6,7,8,9,10,11,13a,14,14a,15,16,16a-hexadecahydrocyclopropa[e]pyrrolo[1,2-a][1,4]diazacyclopentadecin-6-yl)carbamate] |  |  | < 5.46 nM | < 5.46 nM |  |
| COc1cnc(O[C@@H]2C[C@H]3C(=O)N[C@]4(C(=O)NS(=O)(=O)C5CCC5)C[C@H]4/C=C\CC[C@@H](C)C[C@@H](C)[C@H](NC(=O)OC(C)(C)C)C(=O)N3C2)c2ccccc12 [Compound 5352] | < 5.46 nM | < 5.46 nM |  |  |  |
| CC[C@@H]1C[C@H](C)CC/C=C\[C@@H]2C[C@@]2(C(=O)NS(=O)(=O)C2CC2)NC(=O)[C@@H]2C[C@@H](Oc3nc4cc(OC)ccc4nc3C(C)C)CN2C(=O)[C@H]1NC(=O)OC(C)(C)C [Compound 4272, tert-butyl ((2R,6S,7R,9R,13aS,14aR,16aS,Z)-14a-((cyclopropylsulfonyl)carbamoyl)-7-ethyl-2-((3-isopropyl-7-methoxyquinoxalin-2-yl)oxy)-9-methyl-5,16-dioxo-1,2,3,5,6,7,8,9,10,11,13a,14,14a,15,16,16a-hexadecahydrocyclopropa[e]pyrrolo[1,2-a][1,4]diazacyclopentadecin-6-yl)carbamate] | 1.01 to 5 nM | 5.01 to 35 nM |  |  |  |
| CCOc1cc2ccnc(O[C@@H]3C[C@H]4C(=O)N[C@]5(C(=O)NS(=O)(=O)C6CC6)C[C@H]5/C=C\CC[C@@H](C)C[C@@H](C)[C@H](NC(=O)OC(C)(C)C(F)(F)F)C(=O)N4C3)c2cc1F [Compound 5401, 1,1,1-trifluoro-2-methylpropan-2-yl((2R,6S,7R,9R,13aS,14aR,16aS,Z)-14a-((cyclopropylsulfonyl)carbamoyl)-2-((6-ethoxy-7-fluoroisoquinolin-1-yl)oxy)-7,9-dimethyl-5,16-dioxo-1,2,3,5,6,7,8,9,10,11,13a,14,14a,15,16,16a-hexadecahydrocyclopropa[e]pyrrolo[1,2-a][1,4]diazacyclopentadecin-6-yl)carbamate] | 0.1 to 0.5 nM | 1.01 to 5 nM |  |  |  |
| C=C1C=Cc2c(O[C@@H]3C[C@H]4C(=O)N[C@]5(C(=O)NS(=O)(=O)C6CC6)C[C@H]5/C=C\CC[C@@H](C)C[C@@H](CC)[C@H](NC(=O)OC(C)(C)C)C(=O)N4C3)ncc(OC)c2C1 [Compound 4007] | < 5.46 nM | < 5.46 nM |  |  |  |
| COc1ccc2c(O[C@@H]3C[C@H]4C(=O)N[C@]5(C(=O)NS(=O)(=O)C6CC6)C[C@H]5/C=C\CC[C@H](C)C[C@@H](C)[C@H](NC(=O)OC(C)(C)C(F)(F)F)C(=O)N4C3)nc(-c3ccc(OC(C)C)c(F)c3)cc2c1 [Compound 3063, 1,1,1-trifluoro-2-methylpropan-2-yl((2R,6S,7R,9S,13aS,14aR,16aS,Z)-14a-((cyclopropylsulfonyl)carbamoyl)-2-((3-(3-fluoro-4-isopropoxyphenyl)-6-methoxyisoquinolin-1-yl)oxy)-7,9-dimethyl-5,16-dioxo-1,2,3,5,6,7,8,9,10,11,13a,14,14a,15,16,16a-hexadecahydrocyclopropa[e]pyrrolo[1,2-a][1,4]diazacyclopentadecin-6-yl)carbamate] |  |  | < 5.46 nM | 4.82 to 103 nM |  |
| COc1nnc(O[C@@H]2C[C@H]3C(=O)N[C@]4(C(=O)NS(=O)(=O)C5(C)CC5)C[C@H]4/C=C\CC[C@H](C)C[C@@H](C)[C@H](NC(=O)OC(C)(C)C)C(=O)N3C2)c2ccccc12 [Compound 5015, tert-butyl ((2R,6S,7R,9S,13aS,14aR,16aS,Z)-2-((4-methoxyphthalazin-1-yl)oxy)-7,9-dimethyl-14a-(((1-methylcyclopropyl)sulfonyl)carbamoyl)-5,16-dioxo-1,2,3,5,6,7,8,9,10,11,13a,14,14a,15,16,16a-hexadecahydrocyclopropa[e]pyrrolo[1,2-a][1,4]diazacyclopentadecin-6-yl)carbamate] | < 5.46 nM | 4.82 to 103 nM |  |  |  |
| CCOc1ccc2c(O[C@@H]3C[C@H]4C(=O)N[C@]5(C(=O)NS(=O)(=O)C6(CF)CC6)C[C@H]5/C=C\CC[C@@H](C)C[C@@H](C)[C@H](NC(=O)OC(C)(C)C(F)(F)F)C(=O)N4C3)nccc2c1 [Compound 5363, 1,1,1-trifluoro-2-methylpropan-2-yl((2R,6S,7R,9R,13aS,14aR,16aS,Z)-2-((6-ethoxyisoquinolin-1-yl)oxy)-14a-(((1-(fluoromethyl)cyclopropyl)sulfonyl)carbamoyl)-7,9-dimethyl-5,16-dioxo-1,2,3,5,6,7,8,9,10,11,13a,14,14a,15,16,16a-hexadecahydrocyclopropa[e]pyrrolo[1,2-a][1,4]diazacyclopentadecin-6-yl)carbamate] | 0.51 to 1 nM | 1.01 to 5 nM |  |  |  |
| COCCn1nc(O[C@@H]2C[C@H]3C(=O)N[C@]4(C(=O)NS(=O)(=O)C5CC5)C[C@H]4/C=C\CC[C@@H](C)C[C@@H](C)[C@H](NC(=O)OC(C)(C)C)C(=O)N3C2)c2ccccc2c1=O [Compound 1008, tert-butyl ((2R,6S,7R,9R,13aS,14aR,16aS,Z)-14a-((cyclopropylsulfonyl)carbamoyl)-2-((3-(2-methoxyethyl)-4-oxo-3,4-dihydrophthalazin-1-yl)oxy)-7,9-dimethyl-5,16-dioxo-1,2,3,5,6,7,8,9,10,11,13a,14,14a,15,16,16a-hexadecahydrocyclopropa[e]pyrrolo[1,2-a][1,4]diazacyclopentadecin-6-yl)carbamate] |  |  | 4.82 to 103 nM | 4.82 to 103 nM |  |
| COc1cc(F)cc2c(O[C@@H]3C[C@H]4C(=O)N[C@]5(C(=O)NS(=O)(=O)C6(CF)CC6)C[C@H]5/C=C\CC[C@H](C)C[C@@H](C)[C@H](NC(=O)OC(C)(C)C)C(=O)N4C3)nccc12 [Compound 3173, tert-butyl ((2R,6S,7R,9S,13aS,14aR,16aS,Z)-2-((7-fluoro-5-methoxyisoquinolin-1-yl)oxy)-14a-(((1-(fluoromethyl)cyclopropyl)sulfonyl)carbamoyl)-7,9-dimethyl-5,16-dioxo-1,2,3,5,6,7,8,9,10,11,13a,14,14a,15,16,16a-hexadecahydrocyclopropa[e]pyrrolo[1,2-a][1,4]diazacyclopentadecin-6-yl)carbamate] |  |  | 4.82 to 103 nM | 4.82 to 103 nM |  |
